No end group written: not given here.

The subject of test [1] is HIV-1IIIB. Briefly: HIV-1 antiviral assay in CEM-SS cells (MTS readout). Format: cell-based.
Test [2] relates to hepatitis B virus (HBV) ayw strain. Briefly: HBV experimental assay system, HepG2-2.2.15, TaqMan PCR of secreted HBV DNA. The settings on record: 10 micrograms per ml, six days, HBV DNA by TaqMan PCR. Format: cell-based. From the text: HepG2-2.2.15 is a stable cell line containing the hepatitis B virus (HBV) ayw strain genome (ATCC Cat. No. CRL-11997). Antiviral compounds blocking any late step of viral replication such as transcription, translation, pregenome encapsidation, reverse transcription, particle assembly and release can be identified and characterized using this cell line. In this assay, an active compound will reduce the production of secreted HBV from cells, measured by utilizing real time quantitative PCR (TaqMan) assay to directly and accurately measure HBV DNA copies.
HepG2-2.2.15 cells were plated in 96-well microtiter plates. After 16-24 hours the confluent monolayer of HepG2-2.2.15 cells was washed and the medium was replaced with complete medium containing test peptides—10 micrograms per ml—in duplicate. […] Six days following the initial administration of the peptides, the cell culture supernatants was collected, treated with pronase and DNAse and then used in a real-time quantitative TaqMan PCR assay. The PCR-amplified HBV DNA was detected in real-time by monitoring increases in fluorescence signals that result from the exonucleolytic degradation of a quenched fluorescence probe molecule that hybridizes to the mplified HBV DNA. […] Antiviral activity was calculated from the reduction in HBV DNA levels (% virus control). […]

The test system of test [3] is Primary Human endothelial cells (HUVEC). Nature of the test: Endothelial cell migration assay. Conditions: 10 micrograms per ml, 22 hours. Format: cell-based.
Test [4] has as its system spleen cells. Briefly: Th1/Th2 cytokine profiling assay (Ovalbumin-restimulated spleen cells, CBA kit). Conditions: 10 micrograms per ml; spleen cells of Ovalbumin-immunized Balb/c mice, restimulated with Ovalbumin 10 micrograms/ml; 72 hours. It counts as cell-based.
The test system of test [5] is RAW 264.7 cells. Nature of the test: Phagocytosis assay (Fluorescein-labeled Escherichia coli, flow cytometry). It counts as cell-based, mouse. Conditions: 10 micrograms per ml, 30 min preincubation, 60 min ingestion.
Test [6] deals with HCMV strain AD169. Briefly: HCMV plaque assay in MRC-5 cells. Conditions: for inhibition of HCMV plaque formation as compared to the virus control experiment: 10 micrograms per ml, 7-10 days.

With `CC(C)(C)NC(=O)[C@@H]1CN(Cc2cccnc2)CCN1C[C@@H](O)C[C@@H](Cc1ccccc1)C(=O)N[C@H]1c2ccccc2C[C@H]1O` [indinavir], the “antiviral activity of positive control compounds (HIV-1)” value in test [1] is given as “expected levels of antiviral activity”.
Still for that read-out and setting: for `Cc1cn([C@H]2C[C@H](N=[N+]=[N-])[C@@H](CO)O2)c(=O)[nH]c1=O` [AZT] the value was “expected levels of antiviral activity”.
Take “Asp-Asn-Pro-Ser-Leu-Ser-Ile-Asp-Leu-Thr-Phe-His-Leu-Leu-Arg-Thr-Leu-Leu-Glu-Leu-Ala-Arg-Thr-Gln-Ser-Gln-Arg-Glu-Arg-Ala-Glu-Gln-Asn-Arg- Ile-Ile-Phe-Asp-Ser-Val-NH2 (DNPSLSIDLTFHLLRTLLELARTQSQRERAEQNRIIFDSV-NH2) [Peptide 1]”: the “inhibition of HBV replication as compared to the virus control infection” value in test [2] was determined as 63.0%. In test [3], the “inhibition of the tube formation of human endothelial cells (results given under Example 14, Endothelial Cell Migration Assay)” value is 39%. Moreover, in test [4], the “IFNγ spleen cells; TH1 response (% of control)” value was 29.0 % of control, the “IL-2 spleen cells (% of control)” value is 168.1 % of control, the “IL-4 spleen cells; TH2 response (% of control)” value is listed as 111.6 % of control and the “IL-5 spleen cells; TH2 response (% of control)” value was 68.0 % of control. In test [4], the “TNF-a spleen cells; TH1 response (% of control)” value was 84.8 % of control. The “effect (increase) on the phagocytic activity of murine macrophages” value in test [5] is recorded as “no inhibitory or activating effects”. In addition, the “inhibition of HCMV plaque formation as compared to the virus control experiment” value in test [6] is “did not inhibit”.
Take `Nc1nc(O)c2ncn(COC(CO)CO)c2n1` [Ganciclovir, reference compound]: in test [6] (positive control, HCMV AD169), the “antiviral activity of positive control compound (HCMV)” value is reported as “expected levels of antiviral activity”.
With “Ser-Glu-Glu-Pro-Pro-Ile-Ser-Leu-Asp-Leu-Thr-Phe-His-Leu-Leu-Arg-Glu-Val-Leu-Glu-Met-Ala-Arg-Ala-Glu-Gln-Leu-Ala-Gln-Gln-Ala-His-Ser-Asn- Arg-Lys-Leu-Met-Glu-Ile-Ile-NH2 (SEEPPISLDLTFHLLREVLEMARAEQLAQQAHSNRKLMEII-NH2) [Peptide 2]”, the “inhibition of HBV replication as compared to the virus control infection” value in test [2] is listed as 57.2%. For the same compound, the “inhibition of the tube formation of human endothelial cells (results given under Example 14, Endothelial Cell Migration Assay)” value in test [3] is recorded as “did not inhibit”. Also, in test [4], the “IFNγ spleen cells; TH1 response (% of control)” value was 144.1 % of control, the “IL-2 spleen cells (% of control)” value is recorded as 166.5 % of control, the “IL-4 spleen cells; TH2 response (% of control)” value is recorded as 178.1 % of control and the “IL-5 spleen cells; TH2 response (% of control)” value is listed as 7.0 % of control. Moreover, the “TNF-a spleen cells; TH1 response (% of control)” value in test [4] is recorded as 138.1 % of control. In addition, in test [5], the “effect (increase) on the phagocytic activity of murine macrophages” value was found to be 34.3%. Also, in test [6], the “inhibition of HCMV plaque formation as compared to the virus control experiment” value was “did not inhibit”.
